The results in this text go back to EPA's ToxValDB 9.5 (doi:10.2903/j.efsa.2006.68r).

The subject of one series is Typhlodromus pyri. Briefly: LR50; higher = less toxic. To be noted: not reported; mortality.
In another series the test system is Aphidius rhopalosiphi. As to the kind of experiment: LR50; higher = less toxic. As to conditions: not reported; mortality.
The test system of the next series is Oryctolagus sp. To be noted: reproduction developmental; clinical signs.
The next series has as its system Bibionidae. As to conditions: chronic/long-term; duration: 28 days.
In a further series the test system is Daphnia magna. To be noted: chronic/long-term; duration: 21 days.
In another series the test system is Rattus norvegicus. To be noted: for NOAEL: neurology.
The next series has as its system Apis mellifera. To be noted: acute, mortality.

≈ marks a conversion by molar mass, not a printed value.

Consider `CCOP(=O)(SC(C)CC)SC(C)CC` (configuration not stated) [Cadusafos], for which the LR50 in the series with Typhlodromus pyri was found to be 44.4 g/ha; in the series with Aphidius rhopalosiphi, 3.75 g/ha. Further, the NOAEL with Oryctolagus sp. came to 0.3 mg/kg-day; with Rattus norvegicus (chronic, duration: 2 years, F), 0.045 mg/kg-day; with Rattus norvegicus (subchronic, duration: 90 days, oral, diet), 0.067 mg/kg-day. The LC50 with Oncorhynchus mykiss (acute, duration: 96 hours, mortality) worked out at 130 µg/mL (≈ 481 µM); in the series with Pontoscolex corethrurus (acute, mortality) it was 12.5 mg/kg; in the series with Colinus virginianus (acute, oral, diet, mortality), 10.8 mg/kg-day. Also, the NOEC was 5.22 mg/L in the series on Oncorhynchus mykiss (chronic/long-term, duration: 95 days); 1.8 mg/kg in the series on Pontoscolex corethrurus (chronic/long-term, reproduction); 32 µg/kg with Bibionidae; 0.231 mg/L in the series with Daphnia magna. The LD50 with Colinus virginianus (acute, oral, mortality) stood at 16.1 mg/kg-day; in the series on Rattus norvegicus (acute, oral, mortality), 37.1 mg/kg; with Apis mellifera (dermal), 1.8 µg/piece; in the series with Apis mellifera (oral, unspecified), 2.07 µg/piece. In addition, in the series with Colinus virginianus (reproduction developmental), the NOEL was ≥ 1.1 mg/kg-day.

The term NOAEL denotes the highest tested level that showed no adverse finding.
